Test [1] has as its target complex I (NADH:ubiquinone oxidoreductase) in bovine submitochondrial particles. The conditions noted are these: internal bullatacin control, cited from earlier work.
Another test deals with T1, mouse complex I (Mus musculus, UniProt P03888+Q91WD5+Q9DC70).
T1 construct: hearts were obtained from C57BL/6 mice; from tissue; host or cells: heart mitochondria of C57BL/6 mice
Description: NADH:DQ assay of purified compound 1-copurified mouse complex I, initial rates against control sample. In kind it is biochemical. The settings on record: first 25 s, 5 μM DQ, 0.5 μg ml−1 AOX, 200 μM NADH; after copurification with 200 μM compound 1 and size-exclusion chromatography; SD, n = 3 technical repeats; read-out: inhibition of initial rates (proportion of complex I molecules containing the inhibitor). On the procedure: To better understand the mode of acetogenin binding to complex I, the inhibitor-bound enzyme was prepared for cryo-EM analysis. The acetogenin ortholog inhibitor selected for study here is compound 1; it contains a γ-lactone group, a 12-carbon aliphatic chain (linker) that connects the γ-lactone to a central hydroxylated bis-tetrahydrofuran (THF) group, and a final 10-carbon aliphatic extension (tail) (Figs. 1 and 2). […] Furthermore, substrates (NADH and decylubiquinone, DQ) were added alongside to stimulate complex I turnover, along with an alcohol dehydrogenase and an alternative oxidase for substrate regeneration, to ensure exposure of the high-affinity binding site that may only be present in specific intermediates. Excess compound 1, substrates, and regenerating enzymes were then removed by size-exclusion chromatography to eliminate nonspecifically bound inhibitor molecules. […]
After ∼5 min at 4 °C incubation, 20 μl of the mixture was removed as a control, and the remaining sample was added to glass vials containing enough dried compound 1, from an ethanol stock, to give a final 200 μM of compound 1, resuspended with gentle pipetting. […] The specific activity of the control [measured in 0.15% asolectin (20 % soy PC), 0.15% CHAPS, and 200 μM DQ] was 9.6 ± 0.4 μmol min^−1 mg^−1.

The mark [2] stands for this setting: ref 34, read-out: IC50† (complex I inhibition).
The mark [3] stands for this setting: ref 33, read-out: IC50* (complex I inhibition).

Where two headings read alike, the source gives them in different places.

On to `CC(=O)OC(CCCCCCCCCCCCC1=CC(C)OC1=O)C1CCC(C2CCC(C(O)CCCCCCCCCCCCC3=CC(C)OC3=O)O2)O1` (centres unmarked) [Compound 12], for which the IC50 in test [1] (setting [2]) was 2 ± 0.2 nM.

Consider `CCCCCCCCCCC(O)C1CCC(C2CCC(C(O)CCCCCCCCCCCCC3=CC(C)OC3=O)O2)O1` (centres unmarked) [Compound 1], for which the results for the IC50 in test [1] (setting [3]) and in test [1] (setting [2]) were 1.3 nM and 1.3 ± 0.1 nM, respectively. Moreover, the inhibition at 200 µM on mouse complex I was determined as 77 ± 5%.

On to `CCCCCCCCCCC(O)C1CCC(C2CCC(C(CCCCCCCCCCCCC3=CC(C)OC3=O)OC(C)=O)O2)O1` (centres unmarked) [Compound 7], for which the IC50 in test [1] (setting [3]) was 2.1 nM.

For the compound `CC1C=C(CCCCCCCCCCCCC(O)C2CCC(C3CCC(C(O)CCCCCCCCCCCCC4=CC(C)OC4=O)O3)O2)C(=O)O1` (centres unmarked) [Compound 9], in test [1] (setting [2]), the IC50 is 1.2 nM.

Take bullatacin [reference compound]: the figures for the IC50 in test [1] (setting [3]) and in test [1] (setting [2]) were 0.9 ± 0.2 nM and 1.2 ± 0.2 nM, respectively.

As for `CC1C=C(CCCCCCCCCCCCC(O)C2CCC(C3CCC(C(O)CCCCCCCCCCCCC4=CC(C)OC4=O)O3)O2)C(=O)O1` (centres unmarked) [Compound 11], the IC50 in test [1] (setting [2]) was 1.2 ± 0.2 nM.

For the compound `CCCCCCCCCCC(OC(C)=O)C1CCC(C2CCC(C(CCCCCCCCCCCCC3=CC(C)OC3=O)OC(C)=O)O2)O1` (centres unmarked) [Compound 8], the half-inhibitory concentration (IC50) in test [1] (setting [3]) is 7.2 nM.

Turning to `CC(=O)OC(CCCCCCCCCCCCC1=CC(C)OC1=O)C1CCC(C2CCC(C(CCCCCCCCCCCCC3=CC(C)OC3=O)OC(C)=O)O2)O1` (centres unmarked) [Compound 13], the IC50 in test [1] (setting [2]) is 18 ± 2 nM. Also, the “IC50† (complex I inhibition)” value in test [1] (ref 34) is “maintains its high affinity”.

Take `CCCCCCCCCCC(O)C1CCC(C2CCC(C(O)CCCCCCCCCCCCC3=CCC(C)OC3=O)O2)O1` (centres unmarked) [Compound 3]: the IC50 in test [1] (setting [3]) is 1.3 ± 0.1 nM.

In the case of `CCCCCCCCCCC(O)C1CCC(C2CCC(C(O)CCCCCCCCCCCCC3=CCOC3=O)O2)O1` (centres unmarked) [Compound 2], the 50% inhibitory concentration (IC50) in test [1] (setting [3]) was 1.2 ± 0.1 nM.

In general, IC50 refers to the concentration that gives 50% inhibition. One may read the inhibition as how much of the control response was suppressed.

Source of the values: article PMC8861642, “Cryo-electron microscopy reveals how acetogenins inhibit mitochondrial respiratory complex I” (The Journal of Biological Chemistry, 2022).
